Measurements from article PMC6820371, “Terbium-161 for PSMA-targeted radionuclide therapy of prostate cancer” (European Journal of Nuclear Medicine and Molecular Imaging, 2019).

What was measured:
[1] = system: PC-3 PIP/flu tumor-bearing mice; settings: ~25 MBq
Protocol: In a separate study, SPECT/CT experiments were performed 12–14 days after tumor cell inoculation using a dedicated small-animal SPECT/CT camera (NanoSPECT/CT^TM, Mediso Medical Imaging Systems, Budapest, Hungary) as previously reported (Supplementary material) [34]. ^161Tb-PSMA-617 (~25 MBq/nmol) was diluted in saline for injection. Scans were acquired at 1 h, 4 h, and 24 h after injection of the radioligands (~25 MBq, 1 nmol, 100 μL). During the in-vivo scans, mice were anesthetized using a mixture of Isoflurane and oxygen.
Methods: Mice were inoculated with PC-3 PIP/flu tumor cells, as described for biodistribution studies, and injected with ^161Tb-PSMA-617 (~25 MBq, 1 nmol per mouse) about 12-14 days later. Under these conditions, the SPECT scans lasted for ~40 min. […] During the in-vivo scans, mice were anesthetized using a mixture of Isoflurane and oxygen.
SPECT/CT experiments were performed using a dedicated small-animal SPECT/CT camera (NanoSPECT/CT^TM, Mediso Medical Imaging Systems, Budapest, Hungary) as previously reported [4, 10]. The images were acquired using Nucline software (version 1.02, Mediso Ltd., Budapest, Hungary). The real-time CT reconstruction used a cone-beam-filtered backprojection. […] The lower scale of radioactivity was cut by 1% to make tumors and kidneys best visible.

PC-3 PIP tumor cells = assay: Cell viability assay (MTT assay); type: cell-based, human
Protocol: The detailed methods of these studies, including dosimetric calculations, are described in the Supplementary material. The results were analyzed for statistical significance by a two-way ANOVA with Sidak’s multiple comparison post-test using Graph Pad Prism (version 7).
Methods: Tumor cell viability was assessed using a 3-(4,5-dimethylthiazol-2-yl)-2,5-diphenyltetrazolium bromide (MTT) assay as described by Mosmann. PC-3 PIP tumor cells (2500 cells in 200 μL RPMI medium with supplements) were seeded in 96-well plates and incubated overnight (37°C; 5% CO2) to allow adhesion of the tumor cells. The supernatants were removed and the tumor cells were washed once with 200 μL PBS. Afterwards, the tumor cells were incubated in 200 μL RPMI medium (without supplements) containing ^161Tb-PSMA-617 or ^177Lu-PSMA-617 (0.01‒20 MBq/mL), respectively, or just RPMI medium without addition of radioligands. PSMA-negative PC-3 flu tumor cells were also treated with these radioligands under the same experimental conditions using the same concentration range. Additional cell viability assays were performed with PC-3 PIP tumor cells incubated with RPMI medium (without supplements) containing ^161Tb-diethylenetriaminepentaacetic acid (DPTA) or ^177Lu-DTPA (0.01 – 20 MBq/mL). After 4 h incubation (37 °C; 5% CO2), the tumor cells were washed once with 200 μL PBS, followed by the addition of 200 μL of RPMI medium (with supplements) to each well. The tumor cells were left to grow for 6 days under standard cell culture conditions (37 °C, 5% CO2). At Day 6 after treatment, MTT reagent (5 mg/mL in PBS, 30 μL per well) was added to each well to allow the formation of dark-violet formazan crystals within 4 h incubation. The crystals were dissolved by the addition of dimethyl sulfoxide to determine the absorbance at 560 nm using a microplate reader (Victor X3, Perkin Elmer). Cell viability was quantified by expressing the absorbance of the test samples as percentage of the absorbance of control (untreated) cell samples which was set to 100%. Statistical analysis was performed using a two-way ANOVA with Sidak’s multiple comparison post-test in Graph Pad Prism (version 7).

## O=C([O-])CN1CCN(CC(=O)[O-])CCN(CC(=O)NCC2CCC(C(=O)NC(Cc3ccc4ccccc4c3)C(=O)NCCCCC(NC(=O)NC(CCC(=O)O)C(=O)O)C(=O)O)CC2)CCN(CC(=O)[O-])CC1.[161Tb+3] (stereo not shown) [^161Tb-PSMA-617]
[1]; 1 h, 4 h and 24 h p.i.
  Uptake in the PSMA-negative PC-3 flu tumor (SPECT/CT): negligible uptake
[1]; after 4 h
  Renal excretion of activity (SPECT/CT): almost entirely excreted
PC-3 PIP tumor cells; 0.1–10 MBq/mL, p < 0.05
  Reduction of tumor-cell viability compared to ^177Lu-PSMA-617: significantly more effective
PC-3 PIP tumor cells; viability and survival of PC-3 PIP tumor cells
  Effectiveness in vitro relative to ^177Lu-PSMA-617: up to 3 fold
